Legend:
[1] = molecular target: T1, Human recombinant collagenase-1 (Homo sapiens, UniProt P03956); assay: Inhibition of human collagenase-1 (recombinant collagenase-1 assay); format: biochemical; conditions: Table 2, read-out: MMP-1 (IC50 class)
T1 sequence (P03956 100-469): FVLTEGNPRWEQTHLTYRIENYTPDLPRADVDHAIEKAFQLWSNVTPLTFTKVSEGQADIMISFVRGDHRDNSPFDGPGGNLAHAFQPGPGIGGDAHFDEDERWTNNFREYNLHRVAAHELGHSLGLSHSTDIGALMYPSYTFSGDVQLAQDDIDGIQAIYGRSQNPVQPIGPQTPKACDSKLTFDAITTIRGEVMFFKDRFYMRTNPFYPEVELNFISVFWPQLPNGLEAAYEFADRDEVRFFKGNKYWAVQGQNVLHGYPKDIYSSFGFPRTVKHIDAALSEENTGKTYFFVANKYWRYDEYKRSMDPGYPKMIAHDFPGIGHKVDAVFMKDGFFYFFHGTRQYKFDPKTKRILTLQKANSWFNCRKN
Method: Inhibition of Human Collagenase-1 (Recombinant Collagenase-1 Assay)
This assay is used in the invention to measure the potency (IC50s) of compounds for collagenase-1.
Human recombinant collagenase-1 is activated with trypsin. The amount of trypsin is optimized for each lot of collagenase-1, but a typical reaction uses the following ratio: 5 mg trypsin per 100 mg of collagenase.
Stock solutions (10 mM) of inhibitors are made up in dimethylsulfoxide and then diluted using the following scheme: • 10 mM------>120 μM------>12 μM------>1.2 μM------>0.12 μM
Twenty-five microliters of each concentration is then added in triplicate to appropriate wells of a 96 well microfluor plate. The final concentration of inhibitor will be a 1:4 dilution after addition of enzyme and substrate. Positive controls (enzyme, no inhibitor) are set up in wells D7–D12 and negative controls (no enzyme, no inhibitors) are set in wells D1–D6.
Collagenase-1 is diluted to 240 ng/ml and […] is then added to appropriate wells of the microfluor plate. Final concentration of collagenase in the assay is 60 ng/ml.
Substrate (DNP-Pro-Cha-Gly-Cys(Me)-His-Ala-Lys(NMA)-NH2) is made as a 5 mM stock in dimethylsulfoxide and then diluted to 20 μM in assay buffer. The assay is initiated by the addition of […] substrate per well of the microfluor plate to give a final concentration of 10 μM.
Fluorescence readings (360 nm excitation, 460 nm emission) are taken at time 0 and then at about 20 minute intervals. The assay is conducted at a temperature of about 20 to about 25° C., preferably about 23° C. with a typical assay time of about 3 hours.
Fluorescence versus time is then plotted for both the blank and collagenase containing samples (data from triplicate determinations is averaged). A time point that provides a good signal (at least five fold over the blank) and that is on a linear part of the curve (usually around 120 minutes) is chosen to determine IC50 values. The zero time is used as a blank for each compound at each concentration and these values are subtracted from the 120 minute data. Data is plotted as inhibitor concentration versus % control (inhibitor fluorescence divided by fluorescence of collagenase alone ×100).

[2] = molecular target: Human recombinant collagenase-3 (Homo sapiens, UniProt P45452); assay: Inhibition of human collagenase-3 (recombinant collagenase-3 assay); format: biochemical; conditions: Table 2; recombinant collagenase-3 assay; read-out: MMP-13 (IC50 class)
Method: Inhibition of Human Collagenase-3 (Recombinant Collagenase-3 Assay)
This assay is used in the invention to measure the potency (IC50s) of compounds for collagenase-3.
Human recombinant collagenase-3 is activated with 2 mM APMA (p-aminophenyl mercuric acetate) for about 2.0 hours, at about 37° C. and is diluted to about 240 ng/ml in assay buffer (50 mM Tris, pH 7.5, 200 mM sodium chloride, 5 mM calcium chloride, […], 0.02% BRIJ-35). Twenty-five micro-liters of diluted enzyme is added per well of a 96 well microfluor plate.
The final concentrations in the assay are 30 μM, 3 μM, 0.3 μM, and 0.03 μM.
Fluorescence readings (360 nm excitation; 450 nm emission) are taken at time 0 and about every 5 minutes for about 1 hour.
Positive controls and negative controls are set up in triplicate as outlined in the collagenase-1 assay. IC50's are determined as per inhibition of human collagenase (collagenase-1).

aggrecanase = assay: Aggrecanase chondrocyte assay (35S-proteoglycan release, IL-1 stimulated); format: cell-based, porcine; conditions: Table 2; aggrecanase chondrocyte assay; read-out: Agg (aggrecanase IC50 class)
Method: Aggrecanase Chondrocyte Assay
This assay is used in the invention to measure the potency (IC50s) of compounds for aggrecanase.
Primary porcine chondrocytes from articular joint cartilage are isolated by sequential trypsin and collagenase digestion followed by collagenase digestion overnight and are plated at 2×10^5 cells per well into 48 well plates with 5 μCi/ml ^35S (1000 Ci/mmol) sulphur in type I collagen coated plates. Cells are allowed to incorporate label into their proteoglycan matrix (approximately 1 week) at 37° C., under an atmosphere of 5% CO2.
The night before initiating the assay, chondrocyte monolayers are washed two times in DMEM/1% PSF/G and then allowed to incubate in fresh DMEM/1% FBS overnight.
The following morning chondrocytes are washed once in DMEM/1% PSF/G. The final wash is allowed to sit on the plates in the incubator while making dilutions. Media and dilutions can be made as described in the Table I below.
Plates are labeled and only the interior 24 wells of the plate are used. On one of the plates, several columns are designated as IL-1 (no drug) and Control (no IL-1, no drug). These control columns are periodically counted to monitor 35S-proteoglycan release. Control and IL-1 media are added to wells (450 μl) followed by compound (50 μl) so as to initiate the assay. Plates are incubated at 37° C., with a 5% CO2 atmosphere.
At 40–50% release (when CPM from IL-1 media is 4–5 times control media) as assessed by liquid scintillation counting (LSC) of media samples, the assay is terminated (about 9 to about 12 hours). Media is removed from all wells and placed in scintillation tubes. Scintillate is added and radioactive counts are acquired (LSC). To solubilize cell layers, 500 μL of papain digestion buffer (0.2 M Tris, pH 7.0, 5 mM EDTA, 5 mM DTT, and 1 mg/ml papain) is added to each well. Plates with digestion solution are incubated at 60° C. overnight. The cell layer is removed from the plates the next day and placed in scintillation tubes. Scintillate is then added, and samples counted (LSC).
The percent of released counts from the total present in each well is determined. Averages of the triplicates are made with control background subtracted from each well.

TACE = molecular target: T2, TACE (Homo sapiens, UniProt P78536); assay: Inhibition of soluble TNF-α production (TACE whole blood assay); format: cell-based; conditions: Table 2, read-out: TACE (IC50 class)
T2 construct: Human mononuclear cells are isolated from anti-coagulated human blood; endogenous in cells; host or cells: human peripheral blood mononuclear cells, LPS stimulated
Method: Inhibition of Soluble TNF-α Production (TACE Whole Blood Assay)
This assay is used in the invention to measure the potency (IC50s) of compounds for TACE.
Human mononuclear cells are isolated from anti-coagulated human blood using a one-step Ficoll-hypaque separation technique. (2) The mononuclear cells are washed three times in Hanks balanced salt solution (HBSS) with divalent cations and re-suspended to a density of 2×10^6/ml in HBSS containing 1% BSA.
180 μL of the cell suspension was aliquoted into flat bottom 96 well plates (Costar). Additions of compounds and LPS (100 ng/ml final concentration) gives a final volume of 200 μL. All conditions are performed in triplicate. After about a four hour incubation at about 37° C. in an humidified CO2 incubator, plates are removed and centrifuged (about 10 minutes at approximately 250×g) and the supernatants removed and assayed for TNF-α using the R&D ELISA Kit.

T2 sequence (P78536 215-824): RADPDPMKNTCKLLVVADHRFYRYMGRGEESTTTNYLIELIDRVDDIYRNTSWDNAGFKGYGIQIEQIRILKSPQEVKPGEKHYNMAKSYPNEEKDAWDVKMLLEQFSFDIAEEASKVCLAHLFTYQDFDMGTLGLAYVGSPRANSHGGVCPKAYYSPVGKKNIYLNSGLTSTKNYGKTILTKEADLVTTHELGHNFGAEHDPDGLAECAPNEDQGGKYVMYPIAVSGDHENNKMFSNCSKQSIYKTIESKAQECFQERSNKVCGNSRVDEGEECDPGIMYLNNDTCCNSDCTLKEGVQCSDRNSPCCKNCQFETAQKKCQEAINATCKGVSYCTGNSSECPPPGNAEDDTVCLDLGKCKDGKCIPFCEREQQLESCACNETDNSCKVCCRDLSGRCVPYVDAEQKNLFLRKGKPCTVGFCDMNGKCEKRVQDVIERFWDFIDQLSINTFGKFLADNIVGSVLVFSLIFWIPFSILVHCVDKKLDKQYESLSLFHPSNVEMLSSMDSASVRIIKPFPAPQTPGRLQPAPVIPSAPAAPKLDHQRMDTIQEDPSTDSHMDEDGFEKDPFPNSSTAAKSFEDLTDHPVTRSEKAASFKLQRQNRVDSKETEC

IC50 [1]: 0.02 to 0.2 µM
IC50 [2]: < 0.01 µM
IC50 (aggrecanase): < 0.01 µM
IC50 (TACE): 10 to 20 µM
SMILES: CC1(C)C[C@@H](O)CN(S(=O)(=O)c2ccc(OCc3ccc(F)cc3)cc2)[C@H]1C(=O)NO [(2R,5R) 1-[4-(4-fluoro-benzyloxy)-benzenesulfonyl]-5-hydroxy-3,3-dimethyl-piperidine-2-carboxylic acidhydroxyamide]

— patent US7030242B2, “Selective inhibition of aggrecanase in osteoarthritis treatment” (Pfizer Inc, priority 1999, dated 2006)
